Measured values reported in patent US20230285336A1, “COMPOSITION FOR PREVENTION AND TREATMENT OF SKIN DISEASES CAUSED BY GENETIC MUTATION COMPRISING FERULIC ACID AND ANALOGS THEREOF” (UNIVERSITY-INDUSTRY COOPERATION GROUP OF KYUNG HEE …, priority 2019, published 2023).

Key:
keratin 6A protein [1] = assay: Keratin 6A protein expression in cultured skin tissue of mouse, immunofluorescence staining; format: cell-based; conditions: cultured 12 days, compared to control group not treated (FIG. 1)
Protocol: (§1) In order to confirm whether ferulic acid induces the expression of keratin 6A protein from the skin tissue of a mouse, the cross-sections of the cultured skin tissue and the skin tissue of an adult mouse were treated with ferulic acid to confirm the expression level of keratin 6A protein using Western blotting and immunofluorescence staining.
First, after peeling off the skin of a mouse within one day of age, a circular skin piece was spread on a 24-well plate using a 4 mm punch (Kai industries). The cell medium was carefully added with the growth factor Cnt-57 according to the method of CELLnTEC, and the medium was replaced once every two days. […]
Specifically, for cell fluorescence staining, 500 μl of a 4% paraformaldehyde solution (solvent, PBS) was reacted for 20 minutes, and then washed three times with a washing buffer (0.1 M, PBS). […]
(§2) For tissue fluorescence staining, after removing paraffin from the paraffin-coated skin tissue, the tissue was washed three times with a washing buffer (0.1 M, PBS), and reacted with a solution containing hydrogen peroxide (0.1 M PBS, 0.2% H2O2) for 30 minutes to eliminate the activity of endogenous peroxidase. […] Then, after washing three times with a washing buffer (0.1 M, PBS), fluorescence photos were taken using a FluoView FV1000 confocal microscope (Olympus, Tokyo, Japan).

keratin 6A protein [2] = assay: Keratin 6A protein expression in skin tissue of an adult mouse, Western blotting and immunofluorescence staining; format: in vivo
Protocol: as §1
as §2, with “Japan). […]” for “Japan).”
(§3) First, in order to confirm the expression levels of two proteins, keratin 6A and beta-catenin, skin tissue was collected and protein was extracted using a dissolution buffer (pH 7.4, 50 mM, Tris-HCL, 150 mM NaCL, 1 mM EDTA, 1 mM EGTA, 10 mg/mL aprotinin, 10 mg/mL leupeptin, 5 mM phenylmethylsulfonyl fluoride and 1 mM DTT). The extracted protein was quantified using a Bradford reaction solution (Bio-Rad, CA, USA), and 20 μL of the protein was electrophoresed by 10% SDS-PAGE, and transferred to a nitrocellulose membrane (Merck, MA, USA). […]

keratin 6A protein [3] = assay: Keratin 6A protein expression in keratin 5 knock-down kera308 cells, Western blotting; format: cell-based, mouse; conditions: 100 μM, 24 hours, compared to not treated (FIG. 6)
Protocol: as §3, with “USA). The membrane was reacted with primary antibodies keratin 6A (rabbit anti-keratin 6A, 1:200, Covans, NJ, USA) and β-actin (anti-β-actin extracted from mouse, 1:1000, Santa Cruz, TX, USA), and washed three times with TBS-T (Tris Buffered Saline with Tween 20) for 10 minutes, and then the membrane was reacted with a secondary antibody (Santa Cruz, TX, USA) for 1 hour.” for “USA).”
The cells were precultured for 15 hours after attaching 1×10^6 cells/well of kera308 cells, and cultured for 24 hours after being treated with 100 μM ferulic acid. The harvested cells were centrifuged at 13,000 rpm for 5 minutes to take the supernatant, and then the protein concentration was quantified using Bradford assay (BioRed). […]

beta-catenin protein [4] = assay: Beta-catenin protein expression in skin epidermal stem cells, immunofluorescence staining and Western blotting; format: cell-based, mouse; conditions: skin epidermal stem cells (FIGS. 7 and 8)
Protocol: (§4) In order to confirm whether ferulic acid regulates beta-catenin protein, an experiment was carried out to confirm the expression levels of beta-catenin protein and c-myc protein in epidermal cells and dermal cells of the skin.
(§5) The expression levels of beta-catenin protein and c-myc protein after treating skin epidermal stem cells with ferulic acid, and the expression levels of beta-catenin protein and c-myc protein after treating skin epidermal stem cells with ferulic acid together with LiCl, which is a beta-catenin protein inducer, were confirmed using immunofluorescence staining and Western blotting.
(§6) First, for immunofluorescence staining, the cell fluorescence staining method of Example 1 was referred to. At this time, beta-catenin (anti-beta-catenin extracted from mouse, 1:200, Invitrogen, CA, USA) was used instead of keratin 6A as a primary antibody, and Alexa 647 (anti-mouse IgG derived from goat, 1:1000, Invitrogen, CA, USA) was used instead of Alexa 488 (anti-rabbit IgG extracted from donkey, 1:1000, Invitrogen, CA, USA) as a secondary antibody.
(§7) In addition, for Western blotting, the Western blotting method of Example 1 was referred to. In this case, beta-catenin (anti-beta catenin extracted from mouse, 1:200, Invitrogen, CA, USA) was used instead of keratin 6A as a primary antibody.

c-myc protein [5] = assay: c-myc protein expression in skin epidermal stem cells; format: cell-based, mouse; conditions: skin epidermal stem cells (FIGS. 7 and 8)
Protocol: as §4, §5, §6, §7

beta-catenin protein [6] = assay: Beta-catenin protein expression in skin dermal stem cells, immunofluorescence staining and Western blotting; format: cell-based, mouse; conditions: skin dermal stem cells (FIGS. 9 and 10)
Protocol: as §4
as §5, with “dermal” for “epidermal”
as §6, §7

c-myc protein [7] = assay: c-myc protein expression in skin dermal stem cells; format: cell-based, mouse; conditions: skin dermal stem cells (FIGS. 9 and 10)
Protocol: as §4
as §5, with “dermal” for “epidermal”
as §6, §7

COc1cc(/C=C/C(=O)O)ccc1O [ferulic acid]
expression level of keratin 6A protein (keratin 6A protein [1]): increased | expression level of keratin 6A protein (keratin 6A protein [2]; skin tissue of an adult mouse treated for 3 days and 7 days (FIGS. 2 and 3)): increased significantly | expression level of keratin 6A protein (keratin 6A protein [2]; skin tissue of an adult mouse, 3 days after treating (FIGS. 2 and 3)): particularly high | expression level of keratin 6A protein (keratin 6A protein [3]): increased significantly | expression of beta-catenin protein (beta-catenin protein [4]): suppressed | expression of c-myc protein (c-myc protein [5]): suppressed | amount of beta-catenin protein (beta-catenin protein [6]): increased | amount of c-myc protein (c-myc protein [7]): increased
